# From ChEMBL document CHEMBL5335789, “Tea-break with epigallocatechin gallate derivatives - Powerful polyphenols of great potential for medicine” (Eur J Med Chem, 2023)
# Key:
# HCT-116 = test: Antiproliferative activity against human HCT-116 cells assessed as reduction in cell viability incubated for 24 hrs by MTT assay; format: functional, cell-based; settings: HCT-116, 24 h
# MCF7 [1] = test: Antiproliferative activity against human MCF7 cells assessed as reduction in cell viability incubated for 72 hrs by MTT assay; format: functional, cell-based; settings: MCF7, 72 h
# NSCLC = test: Antiproliferative activity against human NSCLC cells assessed as cell growth inhibition incubated for 72 hrs by MTT assay; format: functional, cell-based
# HCC827 = test: Antiproliferative activity against human HCC827 cells assessed as reduction in cell viability incubated for 72 hrs by MTT assay; format: functional, cell-based; settings: HCC827, 72 h
# MDA-MB-231 [2] = test: Cytotoxicity against human MDA-MB-231 cells assessed as cell growth inhibition incubated for 48 hrs by SRB assay; format: functional, cell-based; settings: MDA-MB-231, 48 h
# [3] = Inhibition of Streptococcus sobrinus glycosyl transferase
# U-266 = test: Antiproliferative activity against human U-266 cells assessed as reduction in cell viability incubated for 96 hrs by ATPlite assay; format: functional, cell-based; settings: U-266, 96 h
# Homo sapiens = species: Homo sapiens; test: Inhibition of PI3K/AKT/NF-kappaB (unknown origin) at 30 uM relative to control
# [4] = Inhibition of ERK (unknown origin) at 100 uM by western blot assay relative to control; settings: Homo sapiens
# KB = test: Antitumor activity against human KB cells assessed as inhibition of cell growth measured upto 96 hrs in presence of thymidine by Cell titer blue assay; format: functional; parameters: scale not given: the % may be the effect or the level left
# [5] = biological target: MAP kinase p38 (Homo sapiens) (UniProt O15264+Q15759+Q16539+P53778); test: Inhibition of p38-MAPK (unknown origin) at 30 uM relative to control; format: protein assay
# MDA-MB-231 [6] = test: Inhibition of cell adhesion in human MDA-MB-231 cells assessed as reduction in cell adhesion at 10 uM relative to control; format: functional; parameters: scale not given: the % may be the effect or the level left
# MDA-MB-231 [7] = test: Inhibition of cell migration in human MDA-MB-231 cells measured upto 48 hrs by transwell chamber assay relative to control; format: functional; parameters: scale not given: the % may be the effect or the level left
# MDA-MB-231 [8] = test: Inhibition of cell invasion of human MDA-MB-231 cells at 10 uM incubated for 24 hrs by crystal violet staining based analysis; format: functional; parameters: scale not given: the % may be the effect or the level left
# Jurkat = test: Antiproliferative activity against human Jurkat T cells assessed as inhibition of cell growth at 50 uM incubated for 24 hrs relative to control; format: functional; parameters: scale not given: the % may be the effect or the level left
# MDA-MB-231 [9] = test: Anticancer activity against human MDA-MB-231 cells assessed as reduction in cell viability measured after 72 hrs by MTT assay; format: functional
# NCI-H441 = test: Antiproliferative activity against human NCI-H441 cells assessed as reduction in cell viability incubated for 48 hrs by WST-8 assay; format: functional, cell-based; settings: NCI-H441, 48 h
# A549 [10] = test: Antiproliferative activity against human A549 cells expressing wild type EGFR assessed as reduction in cell viability incubated for 48 hrs by MTT assay; format: functional, cell-based; settings: A549, 48 h
# SMMC-7721 = test: Cytotoxicity against human SMMC-7721 cells assessed as reduction in cell viability incubated for 48 hrs by MTT assay; format: functional, cell-based; settings: SMMC-7721, 48 h
# A549 [11] = test: Cytotoxicity against human A549 cells assessed as reduction in cell viability incubated for 48 hrs by MTT assay; format: functional, cell-based; settings: A549, 48 h
# BEAS-2B = test: Cytotoxicity against human BEAS-2B assessed as reduction in cell viability incubated for 72 hrs by MTT assay; format: functional, cell-based
# MCF7 [12] = test: Cytotoxicity against human MCF7 cells assessed as reduction in cell viability incubated for 48 hrs by MTT assay; format: functional, cell-based; settings: MCF7, 48 h
# HL-60 = test: Cytotoxicity against human HL-60 cells assessed as reduction in cell growth incubated for 48 hrs by MTT assay; format: functional, cell-based; settings: HL-60, 48 h
# U-937 [13] = test: Antiproliferative activity against human U-937 cells assessed as cell growth inhibition measured after 72 hrs; format: functional, cell-based; settings: U-937, 72 h
# U-937 [14] = test: Antiproliferative activity against human U-937 cells measured upto 72 hrs; format: functional, cell-based; settings: U-937, 72 h
# LNCaP = test: Antiproliferative activity against human LNCaP assessed as reduction in cell viability incubated for 72 hrs by MTT assay; format: functional, cell-based
smiles,measurement,setting,value
O=C(O[C@@H]1Cc2c(O)cc(O)cc2O[C@@H]1c1cc(O)c(=O)c2c(O)c(O)cc([C@H]3Oc4cc(O)cc(O)c4C[C@H]3OC(=O)c3cc(O)c(O)c(O)c3)c2c1)c1cc(O)c(O)c(O)c1 [THEAFLAVIN DIGALLATE],IC50,HCT-116,120 µM
CCOc1cccc(C(=O)O[C@H]2COc3cc(OC)cc(OC)c3C2)c1,IC50,MCF7 [1],8.19 µM
COC(=O)c1c(O)cc2c(c1O)C[C@@H](OC(=O)c1cc(O)c(O)c(O)c1)[C@@H](c1cc(O)c(O)c(O)c1)O2,IC50,NSCLC,~20 µM
same,IC50,HCC827,~20 µM
O=C(Oc1cc(O)cc2ccccc12)c1cc(O)c(O)c(O)c1,IC50,MDA-MB-231 [2],79 µM
O=C(O[C@@H]1Cc2c(O)cc(O)cc2O[C@@H]1c1cc(O)c(=O)c2c(O)c(O)c(O)cc2c1)c1cc(O)c(O)c(O)c1,IC50,[3],11 µM
[N-]=[N+]=NC[C@@H]1O[C@H](c2c(O)cc(O)c3c2O[C@H](c2cc(O)c(O)c(O)c2)[C@H](OC(=O)c2cc(O)c(O)c(O)c2)C3)[C@H](O)[C@@H](O)[C@@H]1O,IC50,U-266,15 µM
O=C(O[C@@H]1Cc2c(O)cc(O)cc2O[C@@H]1c1cc(O)c(O)c(O)c1)c1cc(O)c(O)c(O)c1 [EPIGALOCATECHIN GALLATE],IC50,MDA-MB-231 [2],149 µM
same,inhibition,Homo sapiens,25%
same,inhibition,[4],25%
same,Activity,KB,70%
same,inhibition,[5],45%
same,Activity,MDA-MB-231 [6],40%
same,IC50,[3],89.5 µM
same,Activity,MDA-MB-231 [7],40%
same,Activity,MDA-MB-231 [8],56%
O=c1c(O)cc([C@H]2Oc3cc(O)cc(O)c3C[C@H]2O)cc2cc(O)c(O)c(O)c12,IC50,[3],14 µM
COc1cc(OC)c2c(c1)OC(c1ccccc1)[C@H](OC(=O)c1ccc(OC(C)=O)c(CC=C(C)C)c1)C2 (stereo partly specified),IC50,MCF7 [1],3.99 µM
CC(=O)Oc1cc(OC(C)=O)c2c(c1)O[C@H](c1cc(OC(C)=O)c(OC(C)=O)c(OC(C)=O)c1)[C@H](OC(=O)c1ccc(F)c(F)c1)C2,Activity,Jurkat,90%
same,Activity,MDA-MB-231 [9],33%
O=C(O[C@@H]1Cc2c(OCc3cnnn3[C@H]3O[C@H](CO)[C@@H](O)[C@H](O)[C@H]3O)cc(O)cc2O[C@@H]1c1cc(O)c(O)c(O)c1)c1cc(O)c(O)c(O)c1,IC50,NCI-H441,100 µM
same,IC50,A549 [10],30 µM
CCCC(=O)OC[C@H]1O[C@@H](Oc2c(O)cc(C(=O)O[C@@H]3Cc4c(O)cc(O)cc4O[C@@H]3c3cc(O)c(O)c(O)c3)cc2O)[C@H](OC(=O)CCC)[C@@H](OC(=O)CCC)[C@H]1OC(=O)CCC,IC50,SMMC-7721,22.9 µM
same,IC50,A549 [11],22.9 µM
same,IC50,BEAS-2B,40 µM
same,IC50,MCF7 [12],22.9 µM
same,IC50,HL-60,22.9 µM
O=C(Nc1cccc(NC(=O)c2cccc(O)c2O)c1)c1cccc(O)c1O,IC50,U-937 [13],1.7 µM
same,IC50,U-937 [14],0.67 µM
O=C(O[C@@H]1Cc2c(F)cc(F)cc2O[C@@H]1c1ccc(O)c(O)c1)c1cc(O)c(O)c(O)c1,IC50,LNCaP,13 µM
O=C(Oc1cc(O)c2ccccc2c1)c1cc(O)c(O)c(O)c1,IC50,MDA-MB-231 [2],41 µM
